According to US20250019385A1, “SPIROCYCLIC ANNULATED 2-AMINO-3-CYANO THIOPHENES AND DERIVATIVES FOR THE TREATMENT OF CANCER” (Boehringer Ingelheim International GmbH, priority 2023, published 2025):

Columns and labels:
[1] = biological target: KRAS (WT)::CRAF protein::protein interaction (Homo sapiens (Human), UniProt P01116); assay: KRAS TR-FRET assay (KRAS WT::CRAF, GTP); format: binding
Description: (§1) This assay measures the inhibitory effect of compounds on KRAS::CRAF protein::protein interactions in the presence of GTP using Time-resolved fluorescence energy transfer (TR-FRET).
(§2) The following wildtype or mutant alleles of KRAS and CRAF protein have been used at the given concentrations:
KRAS (WT) 1-169, N-terminal 6His-tag, C-terminal avi-tag (Boehringer Ingelheim in house protein prep); final assay concentration 15 nM.
(§3) CRAF Ras binding domain, GST-tag, TEV cleavage site (Boehringer Ingelheim in house protein prep); final assay concentration 15 nM.
(§4) Test compounds dissolved in DMSO were dispensed onto assay plates (Proxiplate 384 PLUS, white, PerkinElmer; 6008289) using an Access Labcyte Workstation with the Labcyte Echo 55x. For the chosen highest assay concentration of 100 μM, 150 nl of compound solution was transferred from a 10 mM DMSO compound stock solution. A series of eleven fivefold dilutions per compound was transferred to the assay plate, compound dilutions were tested in duplicates. DMSO was added as backfill to a total volume of 150 nl.
(§5) The assay runs on a fully automated robotic system. To 150 nl of compound dilution 15 μl of a mix including the respective KRAS allele, CRAF (e.g. KRAS (G12D)::CRAF; final assay concentrations see above), GTP nucleotide (Sigma G8877; final assay concentration 10 μM), Lance Eu—W1024 labeled Streptavidin (PerkinElmer, Cat No AD0063; final assay concentration 1.5 nM) and Anti-GST surelight APC (PerkinElmer, Cat No AD0059G; final assay concentration 30 nM) in assay buffer (1×PBS, 0.1% BSA, 0.05% Tween 20) are added into columns 1-23 and 15 μL of the solution without the respective KRAS allele were added to row 24.
(§6) Plates are kept at room temperature in a darkened incubator. After 60 minutes incubation time the signal is measured in a PerkinElmer Envision HTS Multilabel Reader using the TR-FRET LANCE Ultra specs from PerkinElmer.
(§7) Each plate contains 16 wells of a negative control (diluted DMSO instead of test compound; w respective KRAS allele; column 23) and 16 wells of a positive control (diluted DMSO instead of test compound; w/o respective KRAS allele; column 24).
(§8) IC50 values were calculated and analyzed with Boehringer Ingelheim's MEGALAB 50 application using a 4 parametric logistic model.
(§9) Tables of example compounds disclosed herein contain IC50 values determined using the above assays (see Table 44).

[2] = tested on: Ba/F3 cells KRAS G12D; assay: Ba/F3 proliferation assay (KRAS G12D); format: cell-based; details: Mus musculus, BaF3, 72 h, AlamarBlue viability
Description: (§10) Ba/F3 cells are ordered from DSMZ (ACC300, Lot17) and grown in RPMI-1640 (ATCC 30-2001)+10% FCS+10 ng/mL IL-3 at 37° C. in 5% […] atmosphere. Plasmids containing KRASG12 mutants (i.e. […], G12C, G12V) are obtained from GeneScript. To generate KRASG12-dependent Ba/F3 models, Ba/F3 cells are transduced with retroviruses containing vectors that harbor KRASG12 isoforms. Platinum-E cells (Cell Biolabs) are used for retrovirus packaging. Retrovirus is added to Ba/F3 cells. To ensure infection, 4 μg/mL polybrene is added and cells are spinfected. Infection efficiency is confirmed by measuring GFP-positive cells using a cell analyzer. Cells with an infection efficiency of 10% to 20% are further cultivated and puromycin selection with 1 μg/mL is initiated. As a control, parental Ba/F3 cells are used to show selection status. Selection is considered successful when parental Ba/F3 cells cultures died. To evaluate the transforming potential of KRASG12 mutations, the growth medium is no longer supplemented with IL-3. Ba/F3 cells harboring the empty vector are used as a control. Approximately ten days before conducting the experiments, puromycin is left out.
(§11) For proliferation assays, Ba/F3 cells are seeded into 384-well plates at 1.5×1 (M cells/60 μL in growth media (RPMI-1640+10% FCS). Compounds (10 mM stock in DMSO) are added at logarithmic dose series using the ECHO acoustic liquid handler system (Beckman Coulter), normalizing for added DMSO and including DMSO controls. All compound treatments are performed in technical duplicates. For the TO time point measurement, untreated cells are analyzed at the time of compound addition. Treated cells are incubated for 72 h at 37° C. with 5% CO2 and cell viability is measured in the PerkinElmer Envision Multimode Reader using AlamarBlue™ (ThermoFisher) viability stain. Viability (stated as percent of control) is defined as relative fluorescence units RFU of each well divided by the RFU of cells in DMSO controls. IC50 values are determined from viability measurements by non-linear regression using a four-parameter model.

[3] = biological target: KRAS (G12D)::CRAF protein::protein interaction (Homo sapiens (Human), UniProt P01116, G12D); assay: KRAS TR-FRET assay (KRAS G12D::CRAF, GTP); format: binding
Description: as §1, §2
KRAS (G12D) 1-169, N-terminal 6His-tag, C-terminal avi-tag (Xtal BioStructures, Inc.); final assay concentration 15 nM,
as §3, §4, §5, §6, §7, §8, §9

[4] = tested on: AsPC-1 cells; assay: AsPC-1 CTG proliferation assay (120 h) (pancreatic cancer, G12D); format: cell-based; details: Homo sapiens, ASPC1
Description: AsPC-1 cells (ATCC CRL-1682) are dispensed into black 384-well plates, flat and clear bottom (Greiner, PNr. 781091) at a density of 500 cells per well in 60 μl RPMI ATCC-Formulation (PAN P04-18047)+10% FCS (fetal calf serum, HyClone, SH30084.03). Cells are incubated overnight at 37° C. in a humidified tissue culture incubator at 5% CO2. Compounds (10 mM stock in DMSO) are added at logarithmic dose series using the ECHO acoustic liquid handler system (Beckman Coulter), normalizing for added DMSO and including DMSO controls. All compound treatments are performed in technical duplicates. For the TO time point measurement, untreated cells are analyzed at the time of compound addition. Plates are incubated for 120 h, and cell viability is measured using CellTiter-Glo luminescent cell viability reagent (Promega product code G7570). Viability (stated as percent of control) is defined as relative luminescence units RLU of each well divided by the RLU of cells in DMSO controls. IC50 values are determined from viability measurements by non-linear regression using a four-parameter model.
IC50 values of representative compounds according to the invention measured with these assays in the indicated cell lines are presented in Table 46.

[5] = tested on: Ba/F3 cells KRAS G12C; assay: Ba/F3 proliferation assay (KRAS G12C); format: cell-based; details: Mus musculus, BaF3, 72 h, AlamarBlue viability
Description: as §10, §11

[6] = biological target: KRAS (G12V)::CRAF protein::protein interaction (Homo sapiens (Human), UniProt P01116, C118S/G12V); assay: KRAS TR-FRET assay (KRAS G12V::CRAF, GTP); format: binding
Description: as §1, §2
KRAS (G12V) 1-169, C118S, N-terminal 6His-tag, C-terminal avi-tag (Boehringer Ingelheim in house protein prep); final assay concentration 15 nM.
as §3, §4, §5, §6, §7, §8, §9

Chain of KRAS (WT)::CRAF protein::protein interaction (P01116 other isoform, or with tags, fused parts or gaps): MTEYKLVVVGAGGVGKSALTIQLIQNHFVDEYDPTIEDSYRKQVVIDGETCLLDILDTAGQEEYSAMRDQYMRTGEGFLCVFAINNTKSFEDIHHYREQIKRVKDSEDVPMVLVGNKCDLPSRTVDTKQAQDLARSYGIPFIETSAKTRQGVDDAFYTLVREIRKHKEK
Chain of KRAS (G12D)::CRAF protein::protein interaction (P01116 other isoform, or with tags, fused parts or gaps G12D): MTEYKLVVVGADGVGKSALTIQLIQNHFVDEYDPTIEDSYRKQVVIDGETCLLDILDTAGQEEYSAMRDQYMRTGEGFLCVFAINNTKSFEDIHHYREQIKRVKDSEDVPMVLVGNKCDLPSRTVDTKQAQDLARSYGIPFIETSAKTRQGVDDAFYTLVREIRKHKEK
Chain of KRAS (G12V)::CRAF protein::protein interaction (P01116 other isoform, or with tags, fused parts or gaps G12V/C118S): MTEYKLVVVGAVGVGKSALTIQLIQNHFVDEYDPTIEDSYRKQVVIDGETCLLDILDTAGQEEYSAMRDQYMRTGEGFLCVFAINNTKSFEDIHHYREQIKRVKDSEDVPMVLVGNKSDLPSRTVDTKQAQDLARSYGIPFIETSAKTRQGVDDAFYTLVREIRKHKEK

SMILES	IC50 [1] [nM]	IC50 [2] [nM]	IC50 [3] [nM]	IC50 [4] [nM]	IC50 [5] [nM]	IC50 [6] [nM]
C[C@H](Oc1nc(-c2onc3c2CCC[C@@]32CCCc3sc(N)c(C#N)c32)nc2c1n(C)c(=O)n2C12COC(C1)C2)[C@@H]1CCCN1C [I-15]	179	51	298	1630	16	150
C[C@H](Oc1nc(-c2onc3c2CCC[C@@]32CCCc3sc(N)c(C#N)c32)nc2c1n(C)c(=O)n2[C@@H]1CCOC1)[C@@H]1CCCN1C [I-20]	50	9	46	246	4	21
CCn1c(=O)n([C@@H]2CCOC2)c2nc(-c3onc4c3CCC[C@@]43CCCc4sc(N)c(C#N)c43)nc(O[C@@H](C)[C@@H]3CCCN3C)c21 [I-21]	95	21	85	327	8	37
C[C@H](Oc1nc(-c2onc3c2CCC[C@@]32CCCc3sc(N)c(C#N)c32)nc2c1n(C)c(=O)n2[C@@H]1CCOC1)[C@@H]1C[C@@H](F)CN1C [I-22]	133	22	138	1090	10	60
C[C@H](Oc1nc(-c2noc3c2CCC[C@@]32CCCc3sc(N)c(C#N)c32)nc2c1CN(C1COC1)C[C@]21CCOC1)[C@@H]1CCCN1C [II-12]	–	8	–	129	2	–
CO[C@H]1CCN(C)[C@@H]1[C@H](C)Oc1nc(-c2noc3c2CCC[C@@]32CCCc3sc(N)c(C#N)c32)nc2c1CN(C1COC1)C[C@]21CCOC1 [II-13]	–	7	–	43	2	–
CO[C@@H]1C[C@@H]([C@H](C)Oc2nc(-c3noc4c3CCC[C@@]43CCCc4sc(N)c(C#N)c43)nc3c2CN(C2COC2)C[C@]32CCOC2)N(C)C1 [II-14]	–	11	–	57	3	–
C[C@H](Oc1nc(-c2noc3c2CCC[C@@]32SCCc3sc(N)c(C#N)c32)nc2c1COC[C@]21CCOC1)[C@@H]1CCCN1C [II-16]	–	3	–	34	1	–
C[C@H](Oc1nc(-c2noc3c2CCC[C@@]32CCCc3sc(N)c(C#N)c32)nc2c1CN(C1COC1)C[C@]21CCOC1)[C@@H]1CC[C@H](C)N1C [II-17]	–	6	–	237	3	–
C[C@H](Oc1nc(-c2noc3c2CCC[C@@]32CCCc3sc(N)c(C#N)c32)nc2c1CCC21CCOC1)[C@@H]1CCCN1C (stereo partly drawn) [II-18]	–	20	–	315	31	–
